# “Also recorded” adds a separate entry of the source. Counter-ions that a name gives are not always drawn.
# Columns and labels:
# [1] = test system: recurrent or refractory solid and CNS tumors; assay: Radiographic antitumor response; assay type: in vivo, human
# [2] = test system: adults with advanced or metastatic solid tumors; details: cited from earlier work
# [3] = test system: pediatric tumor xenograft models; details: in vivo; cited from earlier work
# [4] = in vivo; cited from earlier work
# [5] = 25 patients evaluable for response
compound,measurement,setting,value
"COc1cccc(OCCCN)c1-c1cc(Nc2cnc(C#N)cn2)n[nH]1 [prexasertib, Prexasertib mesylate monohydrate]",best overall response (BOR),[1]; [5],stable disease in 3 patients; also recorded: Three patients had a best overall response (BOR) of stable disease
same,objective responses,[1]; [5],no objective responses
same,duration of stable disease,"[1]; patient with (anaplastic) ependymoma, dose level 2",3 cycles
same,duration of stable disease,"[1]; patient with hepatocellular carcinoma, dose level 1",5 cycles
same,duration of stable disease,"[1]; patient with undifferentiated sarcoma, dose level 3",5 cycles
same,dose-limiting toxicities at the adult RP2D,[2]; 105 mg/m^2 IV once every 14 days,no dose-limiting toxicities
same,adult recommended Phase 2 dose (RP2D),[2]; IV once every 14 days,105 mg/m^2
same,tolerability,[3],well-tolerated
same,CNS penetration,[4],adequate CNS penetration
